Source: US6468969B1, “Inhibition of HIV-1 replication using d-amino acid peptides” (priority 1997, dated 2002)

Target: proteinase K (Parengyodontium album, UniProt P06873)
Assay: Proteinase K digestion of peptide-TAR RNA photocrosslink products
Conditions: very vigorous proteinase K digestion
Method: For photochemical reactions, RNA duplex was prepared by hybridizing two strands ^24. Strand 1 of the duplex was 5′-end labeled with ^32P. Preformed RNA duplexes(0.02 μM) in the absence or presence of the peptide (0.1 μM) were irradiated ([…]) and analyzed by denaturing gels as described in Wang et al., Biochemistry 35, 6491-6499 (1996).

proteinase K, sequence (P06873 106-384): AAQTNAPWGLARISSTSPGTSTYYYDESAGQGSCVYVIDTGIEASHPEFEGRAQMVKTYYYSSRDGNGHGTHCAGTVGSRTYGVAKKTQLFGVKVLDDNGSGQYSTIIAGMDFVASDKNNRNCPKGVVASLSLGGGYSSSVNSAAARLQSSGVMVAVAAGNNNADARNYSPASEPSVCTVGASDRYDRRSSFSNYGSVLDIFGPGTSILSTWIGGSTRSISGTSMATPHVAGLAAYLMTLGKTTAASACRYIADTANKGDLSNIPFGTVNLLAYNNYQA

## CC[C@@H](C)[C@@H](NC(=O)CNC(=O)[C@@H](CC(C)C)NC(=O)[C@@H](C)NC(=O)[C@@H](CCCCN)NC(=O)[C@H](NC(=O)[C@H](NC(=O)[C@@H](Cc1ccccc1)NC(=O)[C@H](N)CS)[C@H](C)O)[C@H](C)O)C(=O)N[C@H](CO)C(=O)N[C@H](Cc1ccc(O)cc1)C(=O)NCC(=O)N[C@H](CCCNC(=N)N)C(=O)N[C@H](CCCCN)C(=O)N[C@H](CCCCN)C(=O)N[C@H](CCCNC(=N)N)C(=O)N[C@H](CCCNC(=N)N)C(=O)N[C@H](CCC(N)=O)C(=O)N[C@H](CCCNC(=N)N)C(=O)N[C@H](CCCNC(=N)N)C(=O)N[C@H](CCCNC(=N)N)C(=O)N1CCC[C@@H]1C(=O)N1CCC[C@@H]1C(=O)N[C@H](CCC(N)=O)C(=O)NCC(=O)N[C@H](CO)C(=O)N[C@H](CCC(N)=O)C(=O)N[C@@H](C(=O)N[C@H](Cc1c[nH]cn1)C(=O)N[C@H](CCC(N)=O)C(=O)N[C@@H](C(=O)N[C@H](CO)C(=O)N[C@H](CC(C)C)C(=O)N[C@H](CO)C(=O)N[C@H](CCCCN)C(=O)N[C@H](CCC(N)=O)C(=O)O)C(C)C)[C@H](C)O [D-Tat (37-72) peptide, D-Cys-D-Phe-D-Thr-D-Thr-D-Lys-D-Ala-D-Leu-D-Gly-D-Ile-D-Ser-D-Tyr-D-Gly-D-Arg-D-Lys-D-Lys-D-Arg-D-Arg-D-Gln-D-Arg-D-Arg-D-Arg-D-Pro-D-Pro-D-Gln-D-Gly-D-Ser-D-Gln-D-Thr-D-His-D-Gln-D-Val-D-Ser-D-Leu-D-Ser-D-Lys-D-Gln]
  protease stability of peptide-RNA crosslink products: completely stable
